Consider one compound from patent US12528792B2, “Sulfonamide compounds and the use thereof in the treatment of cancer” (TROBIO THERAPEUTICS PTY LTD, priority 2019, dated 2026).

In general, IC50 refers to the midpoint of a concentration-inhibition curve.

Type in all cases: cell-based
Assay [1] has as its system A2780 ovarian cancer cells. The assay is described as follows: Drug combination screen, 6x6 dose matrix, Bliss-independence synergy. Also on record: key to Max. Synergy, Vinorelbine: Bliss synergy score; 0 = no synergy, negative = antagonism; highest in matrix; key to Total Synergy, Vinorelbine: sum of Bliss synergy scores across the dose matrix. Particulars: 72 h (26*: 96-well plate format). Here is the method: (§1) In vitro growth inhibition assays were performed as technical triplicate in two independent experiments and cell viability was assessed by Alamar Blue assay readout. Briefly, cells in logarithmic phase growth were seeded in 384-well plates in a 50 μL/well assay volume. Cells were seeded at 1,200 cells/well using a Multidrop 384 (Thermo Scientific) and allowed to adhere at 37° C. with 5% CO2, in a humidified atmosphere (LiCONIC incubator). After 24 hours incubation, test compounds, positive control (20 μM Thonzonium bromide, 100% kill) and vehicle only (0.4% DMSO) were added into wells of each assay plate using a Tecan HP D300 Digital Dispenser in technical triplicate under minimum light. Following 72 hours drug exposure, metabolic activity was detected by addition of 10% (v/v) Alamar Blue reagent to each assay well using a Multidrop Cambi (Thermo Scientific) and determined by measurement of fluorescence intensity (excitation 555 nm, emission 585 nm) using an EnSpire (Perkin Elmer) plate reader. Readings were performed at 0 hour (background) and after 6 hours alamar blue incubation at 37° C.
The two drugs in each combination matrix were dispensed using a Tecan HP D300 Digital Dispenser. Assays were performed in triplicate for each drug combination (test compound/vinorelbine and test compound/paclitaxel combinations). Synergistic drug interactions were calculated from the averaged cell viability data using the methodology described below.
Synergistic drug interactions were determined for each pa1rw1se drug combination by applying the Bliss-independence model that assumes independence of drug mechanisms. Prior to the analysis, percent cell viability (CV) for combination data were converted to fractional cell growth inhibition (GI) by the formula: […]
The Bliss additivism model was used to calculate a predicted combined response C to two single agents with responses A and B (using GI values), as follows:
The final score for any combination was reported as the difference between the value predicted by the additive model and the experimentally observed value, normalised to 100. Using GI values the maximum possible synergy score is 100, with 0 indicating no synergy and negative indicating possible antagonism. Scores were also reported as a “Max synergy” score, which is the highest individual synergy score for each combination matrix, and a “Total synergy” score, which was obtained by summation of each individual synergy score for the matrix.
The single agent IC50 values for the test compounds and their synergy scores in combination with vinorelbine and paclitaxel are presented in Table 4. The data is listed as IC50 mean from technical triplicates for two independent experiments. The averaged IC50 concentrations for the single agents from both runs were then used to generate the 6×6 dose matrices in the synergy experiment. Synergy scores for each drug combination were calculated by the Bliss-independence model. The maximum synergy and total synergy scores for each combination in A2780 cells are listed.

Assay [2] deals with T1, Tpm3.1-containing actin microfilaments in SK-N-SH neuroblastoma cells (Homo sapiens, UniProt P06753).
T1 construct: expressed in transfected cells; host or cells: SK-N-SH neuroblastoma cells
Nature of the assay: Imaging and quantitation of Tpm3.1 mCherry and 488-Atto-Phalloidin actin filaments. The settings on record: 24 hours post-treatment, two concentrations, FIG. 2 and FIG. 3. Here is the method: The ability of compounds 24, 26 and 143 to disrupt Tpm3.1-containing actin microfilaments was investigated in SK—N—SH neuroblastoma cells that express Tpm3.1 labelled with the mCherry fluorophore. Cells were seeded at 3×10^4 cells per well in a volume of 1000 μL complete media onto a 12 well plate containing 13 mm coverslips and left to plate down for 24 hours prior to treatment. Cells were then treated with DMSO and two concentrations of the test compounds. 24 hours post-treatment, cells were fixed with 16% paraformaldehyde (PBS) and stained with 488-Atto-Phalloidin to visualise the actin filament bundles. Single plane images were obtained using the Olympus IX83 epi-fluorescence microscope. Ten fields of view were collected for both Tpm3.1 mCherry fluorophore (FIG. 2) and 488-Atto-Phalloidin (FIG. 3) with each treatment condition.
Quantitation of either Tpm3.1 mCherry filaments or 488-Atto-Phalloidin filaments was performed using ImageJ 1.52p software (ImageJ, NIH). The mean pixel intensity from a cell was measured by using a line across the entire cell cytoplasmic area above or below the nuclear region. The line was made to cross the filament bundles at a 90° angle for the measurement rather than run along a single filament. A total of n=100 cells were measured from ten fields of view. […]

The subject of assay [3] is SK-N-SH neuroblastoma cells. The assay is described as follows: Cytotoxicity assay, MTS viability. The settings on record: Homo sapiens, 72 hours. In short, it runs like this: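 SK-N-SH cells, 2×10^3/well in DMEM with 10% FBS at 37 °C, treated with 1:2 compound series from 100 μM; MTS viability read after 72 hours. Viability normalised to vehicle control; EC50 taken from dose-response curves.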

Assay [4] relates to A2780 ovarian cancer cells. The assay is described as follows: In vitro growth inhibition assay, Alamar Blue, single agent IC50. Particulars: Homo sapiens, 72 h drug exposure, Alamar Blue, 384-well (26*: 96-well plate format), read-out: Single-agent IC50. The method, then: as §1
Each drug was tested as a 10-point concentration series with two-fold serial dilutions of each drug. The concentration series for compounds 6 and 8 was 100, 50, 25, 12.5, 6.25, 3.125, 1.563, 0.781, 0.391 and 0.195 μM and for compounds 24, 43 and 48 was 50, 25, 12.5, 6.25, 3.125, 1.563, 0.781, 0.391, 0.195 and 0.098 μM for the two independent experiments. The concentration series for vinorelbine and paclitaxel was 100, 50, 25, 12.5, 6.25, 3.125, 1.5625, 0.781, 0.391 and 0.195 nM. Thonzonium bromide (20 μM) and 0.4% DMSO were used as positive and vehicle controls, respectively. The IC50 value was calculated by derivation of the best-fit line using a sigmoidal dose response model (Activity Base Software Suite, IDES).
Activity Base software suite (IDES, version 8.3.0.175) was used for data analysis. Cell survival is expressed as a percentage of viable cells. IC50 concentrations were calculated by derivation of the best-fit line using a sigmoidal dose response model with technical triplicate data points.

For assay [5], the system named is Caco-2 (colorectal) cells. Nature of the assay: Anti-proliferative activity, Cell-Titre luminescent viability assay. The settings on record: Homo sapiens, 72 h exposure, Cell-Titre luminescent reagent. In short, it runs like this: (§2)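 Cells attached 24 h at 37° C., 5% CO2, then treated 72 h with compound at 0.3–100 μM or 0.1–30 μM. Viability read by Cell-Titre luminescence after 30 min reagent exposure, normalized to vehicle; EC50 from variable-slope sigmoidal nonlinear regression.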

For assay [6], the system named is A2780 (ovarian) cells. The description is as above. Particulars: Homo sapiens, 72 h exposure, Cell-Titre luminescent reagent. The gist of the method:
as §2

Assay [7] relates to PC3 (prostate) cells. Described as above. The settings on record: 72 h exposure, Cell-Titre luminescent reagent. In short, it runs like this: as §2
The subject of assay [8] is A549 (NSCLC) cells. Described as above. The settings on record: Homo sapiens, 72 h exposure, Cell-Titre luminescent reagent. In short, it runs like this:
as §2

Assay [9] has as its system MIA PaCa-2 (pancreatic) cells. The assay is described as above. Particulars: Homo sapiens, 72 h exposure, Cell-Titre luminescent reagent. In short, it runs like this:
as §2

T1 sequence (P06753 1-248 isoform P06753-2): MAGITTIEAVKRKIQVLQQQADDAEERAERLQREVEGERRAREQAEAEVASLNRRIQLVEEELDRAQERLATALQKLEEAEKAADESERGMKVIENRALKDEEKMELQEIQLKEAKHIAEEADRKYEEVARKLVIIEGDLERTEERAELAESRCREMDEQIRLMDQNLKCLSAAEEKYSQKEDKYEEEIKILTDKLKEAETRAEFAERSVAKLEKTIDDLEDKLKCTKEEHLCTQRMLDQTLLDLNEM

Take `CCC(C)c1ccc(NC(=O)c2ccn(S(=O)(=O)c3ccc4[nH]ccc4c3)c2)cc1` (stereo not drawn) [Compound 24, 1-((1H-indol-5-yl)sulfonyl)-N-(4-(sec-butyl)phenyl)-1H-pyrrole-3-carboxamide]: the “Max. Synergy, Paclitaxel” value in assay [1] (combination with paclitaxel, Bliss score) came to 16.56. For the same compound, in assay [1] (combination with paclitaxel, sum of Bliss scores of the matrix), the “Total Synergy, Paclitaxel” value was 111.86. In addition, in assay [1] (combination with vinorelbine, Bliss score), the “Max. Synergy, Vinorelbine” value came out at 14.27. In addition, the “Total Synergy, Vinorelbine” value in assay [1] (combination with vinorelbine, sum of Bliss scores of the matrix) is 61.75. Also, the “Disruption of Tpm3.1-containing actin microfilaments” value in [2] is “disrupt Tpm3.1-containing actin microfilaments in a dose-dependent manner”. In addition, the IC50 in assay [3] was determined as 7.4 µM; in [4] it was 7.54 µM; in assay [5], 8.45 µM; in assay [6], 2.5 µM; in assay [7], 6.2 µM; in [8], 6 µM. In [9], this compound returned an IC50 of 8.16 µM.
